The values below come from publication PMC5789640, “Depletion of Arabidopsis ACYL-COA-BINDING PROTEIN3 Affects Fatty Acid Composition in the Phloem” (Frontiers in Plant Science, 2018).

The experiment deals with T1, (His)6-AtACBP3 (Arabidopsis thaliana, UniProt Q9STX1).
T1 construct: gene ACBP3; plasmid pAT223, E. coli BL21(DE3) pLysS
T1 sequence (Q9STX1 23-362): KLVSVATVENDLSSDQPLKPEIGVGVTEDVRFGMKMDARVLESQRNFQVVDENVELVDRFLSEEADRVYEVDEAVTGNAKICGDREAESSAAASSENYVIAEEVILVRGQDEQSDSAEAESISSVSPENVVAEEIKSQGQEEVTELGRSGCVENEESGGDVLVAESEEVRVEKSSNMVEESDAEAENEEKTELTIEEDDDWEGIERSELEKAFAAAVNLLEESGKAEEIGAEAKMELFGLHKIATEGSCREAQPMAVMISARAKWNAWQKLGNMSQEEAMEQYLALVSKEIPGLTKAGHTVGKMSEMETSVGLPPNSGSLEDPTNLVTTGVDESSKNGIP
As to the kind of experiment: isothermal titration calorimetry. In kind it is binding. The source says:
isothermal titration calorimetry on (His)6-AtACBP3
In general, Kd refers to a measure of binding affinity in units of concentration. On to `CCCCCCCCCCCC(=O)SCCNC(=O)CCNC(=O)[C@H](O)C(C)(C)COP(=O)(O)OP(=O)(O)OC[C@H]1O[C@@H](n2cnc3c(N)ncnc32)[C@H](O)[C@@H]1OP(=O)(O)O` [C12:0-CoA ester], for which the Kd is 33.1 ± 13 µM.

The molecule `CCCCCCCCCCCCCC(=O)SCCNC(=O)CCNC(=O)[C@H](O)C(C)(C)COP(=O)(O)OP(=O)(O)OC[C@H]1O[C@@H](n2cnc3c(N)ncnc32)[C@H](O)[C@@H]1OP(=O)(O)O` [C14:0-CoA ester] returned a Kd of 4 ± 0.6 µM. Then `CCCCCC/C=C\CCCCCCCC(=O)SCCNC(=O)CCNC(=O)[C@H](O)C(C)(C)COP(=O)(O)OP(=O)(O)OC[C@H]1O[C@@H](n2cnc3c(N)ncnc32)[C@H](O)[C@@H]1OP(=O)(O)O` [C16:1-CoA ester], with 5.1 ± 1.9 µM. Then `CCCCCCCCCCCCCCCCC(=O)SCCNC(=O)CCNC(=O)[C@H](O)C(C)(C)COP(=O)(O)OP(=O)(O)OC[C@H]1O[C@@H](n2cnc3c(N)ncnc32)[C@H](O)[C@@H]1OP(=O)(O)O` [C17:0-CoA ester], with 21 ± 4.7 µM. The same measure for `CCCCC/C=C\C/C=C\CCCCCCCC(=O)SCCNC(=O)CCNC(=O)[C@H](O)C(C)(C)COP(=O)(O)OP(=O)(O)OC[C@H]1O[C@@H](n2cnc3c(N)ncnc32)[C@H](O)[C@@H]1OP(=O)(O)O` [C18:2-CoA ester]: 13.4 ± 1.4 µM. Take `CC/C=C\C/C=C\C/C=C\CCCCCCCC(=O)SCCNC(=O)CCNC(=O)[C@H](O)C(C)(C)COP(=O)(O)OP(=O)(O)OC[C@H]1O[C@@H](n2cnc3c(N)ncnc32)[C@H](O)[C@@H]1OP(=O)(O)O` [C18:3-CoA ester]: the Kd was 8.6 ± 2 µM.
